Reference: patent US10590129B2 (Incozen Therapeutics Pvt. Ltd., priority 2010, dated 2020)
Where a name gives a salt, the structure may show the parent alone.

Legend:
[1] = tested on: MKN-45 cells; assay: Inhibition of MKN-45 proliferation (MTT); format: cell-based, human; conditions: for inhibition at 0.1 µM / inhibition at 1 µM / GI50: Homo sapiens, MKN-45, MKN-45 proliferation
Experimental: Inhibition of MKN-45 Proliferation:
Cell proliferation assays were carried out using the high Met expressing human gastric adenocarcinoma cell line, MKN-45, according to the following schedule:
Day 1: Cells were plated in 96-well plates in complete growth medium.
Day 2: Compounds at desired concentrations were added.
Day 5: Cell viability was determined using the 3-[4,5-dimethylthiazol-2-yl]-2,5-diphenyltetrazolium bromide (MTT) dye reduction test.

Row | Structure (SMILES) | melting point | inhibition at 0.1 µM ([1]; 0.1 μM) | inhibition at 1 µM [1] | further results
1 | CC(C)Cn1cc(-c2ccc3nnn(Cc4ccc5ncccc5c4)c3n2)cn1 [Ex 199, 6-((5-(1-Isobutyl-1H-pyrazol-4-yl)-3H-[1,2,3]triazolo[4,5-b]pyridin-3-yl)methyl)quinoline] | 160 to 163 °C | < 25% | – | –
2 | c1cnc2ccc(Cn3nnc4ccc(-c5cnn(C6CCNCC6)c5)nc43)cc2c1 [Ex 157, 6-((5-(1-(Piperidin-4-yl)-1H-pyrazol-4-yl)-3H-[1,2,3]triazolo[4,5-b]pyridin-3-yl)methyl)quinoline] | 188 to 191 °C | – | – | GI50 [1]: < 1000 nM
3 | Nc1ccc(-c2ccc3nnn(Cc4ccc5ncccc5c4)c3n2)cn1 [Ex 186, 5-(3-(Quinolin-6-ylmethyl)-3H-[1,2,3]triazolo[4,5-b]pyridin-5-yl)pyridin-2-amine] | 194 to 197 °C | < 25% | < 25% | –
4 | Oc1cccc(-c2ccc3nnn(Cc4ccc5ncccc5c4)c3n2)c1 [Ex 24, 3-(3-(quinolin-6-ylmethyl)-3H-[1,2,3]triazolo[4,5-b]pyridin-5-yl)phenol] | 255 to 257 °C | – | < 25% | –
5 | Fc1ccccc1-c1ccc2nnn(Cc3ccc4ncccc4c3)c2n1 [Ex 68, 6-((5-(2-Fluorophenyl)-3H-[1,2,3]triazolo[4,5-b]pyridin-3-yl)methyl)quinoline] | 164 to 166 °C | < 25% | < 25% | –
6 | Nc1ccc(-c2ccc3nnn(Cc4ccc5ncccc5c4)c3n2)cc1 [Ex 64, 4-(3-(quinolin-6-ylmethyl)-3H-[1,2,3]triazolo[4,5-b]pyridin-5-yl)aniline] | 190 to 193 °C | – | 25 to 50% | –
7 | O=Cc1cc(-c2ccc3nnn(Cc4ccc5ncccc5c4)c3n2)cs1 [Ex 182, 4-(3-(Quinolin-6-ylmethyl)-3H-[1,2,3]triazolo[4,5-b]pyridin-5-yl)thiophene-2-carbaldehyde] | 195 to 197 °C | < 25% | 25 to 50% | –
8 | Fc1ccc(-c2ccc3nnn(Cc4ccc5ncccc5c4)c3n2)cc1 [Ex 67, 6-((5-(4-Fluorophenyl)-3H-[1,2,3]triazolo[4,5-b]pyridin-3-yl)methyl)quinoline] | 153 to 156 °C | < 25% | – | inhibition at 1 µM ([1]; number printed instead of class): 13.8%
9 | c1cnc2ccc(Cn3nnc4ccc(-n5ccnc5)nc43)cc2c1 [Ex 152, 6-((5-(1H-Imidazol-1-yl)-3H-[1,2,3]triazolo[4,5-b]pyridin-3-yl)methyl)quinoline] | 227 to 230 °C | – | – | GI50 [1]: 150 to 500 nM
10 | Cc1csc(-c2ccc3nnn(Cc4ccc5ncccc5c4)c3n2)c1 [Ex 193, 6-((5-(4-Methylthiophen-2-yl)-3H-[1,2,3]triazolo[4,5-b]pyridin-3-yl)methyl)quinoline] | 153 to 156 °C | < 25% | 50 to 75% | –
11 | OCCNc1ccc2nnn(Cc3ccc4ncccc4c3)c2n1 [Ex 151, 2-(3-(Quinolin-6-ylmethyl)-3H-[1,2,3]triazolo[4,5-b]pyridin-5-ylamino)ethanol] | 184 to 186 °C | – | 50 to 75% | –
12 | CCCn1cc(-c2ccc3nnn(Cc4ccc5ncccc5c4)c3n2)cn1 [Ex 153, 6-((5-(1-Propyl-1H-pyrazol-4-yl)-3H-[1,2,3]triazolo[4,5-b]pyridin-3-yl)methyl)quinoline] | 128 to 130 °C | – | – | –
13 | O=C(O)Cn1cc(-c2ccc3nnn(Cc4ccc5ncccc5c4)c3n2)cn1 [Ex 155, 2-(4-(3-(Quinolin-6-ylmethyl)-3H-[1,2,3]triazolo[4,5-b]pyridin-5-yl)-1H-pyrazol-1-yl)acetic acid] | > 270 °C | – | – | –
14 | O[C@@H]1CCN(c2ccc3nnn(Cc4ccc5ncccc5c4)c3n2)C1 [Ex 158, (R)-1-(3-(Quinolin-6-ylmethyl)-3H-[1,2,3]triazolo[4,5-b]pyridin-5-yl)pyrrolidin-3-ol] | 167 to 169 °C | – | – | –
15 | CCNC(=O)c1ccc(-c2ccc3nnn(Cc4ccc5ncccc5c4)c3n2)cc1F [Ex 73, N-Ethyl-2-fluoro-4-(3-(quinolin-6-ylmethyl)-3H-[1,2,3]triazolo[4,5-b]pyridin-5-yl)benzamide hydrochloride] | – | 75 to 100% | 50 to 75% | –
16 | O=C(c1ccc(-c2ccc3nnn(Cc4ccc5ncccc5c4)c3n2)cc1)N1CCC(N2CCCC2)CC1 [Ex 38, (4-(pyrrolidin-1-yl)piperidin-1-yl)(4-(3-(quinolin-6-ylmethyl)-3H-[1,2,3]triazolo[4,5-b]pyridin-5-yl)phenyl)methanone] | – | – | – | GI50 [1]: < 1000 nM
17 | O=C(c1ccc(-c2ccc3nnn(Cc4ccc5ncccc5c4)c3n2)cc1)N1CCN(CCO)CC1 [Ex 33, (4-(2-hydroxyethyl)piperazin-1-yl)(4-(3-(quinolin-6-ylmethyl)-3H-[1,2,3]triazolo[4,5-b]pyridin-5-yl)phenyl)methanone] | – | – | – | GI50 [1]: 150 to 500 nM

Second part, led by results:

Row | melting point | Structure (SMILES) | inhibition at 0.1 µM ([1]; 0.1 μM) | inhibition at 1 µM [1] | further results
18 | 181 to 183 °C | CC(C)NC(=O)c1ccc(-c2ccc3nnn(Cc4ccc5ncccc5c4)c3n2)cc1 [Ex 116, N-Isopropyl-4-(3-(quinolin-6-ylmethyl)-3H-[1,2,3]triazolo[4,5-b]pyridin-5-yl)benzamide] | < 25% | 75 to 100% | –
19 | 148 to 150 °C | CN(C)CCCNC(=O)c1ccc(-c2ccc3nnn(Cc4ccc5ncccc5c4)c3n2)cc1F [Ex 72, N-(3-(dimethylamino)propyl)-2-fluoro-4-(3-(quinolin-6-ylmethyl)-3H-[1,2,3]triazolo[4,5-b]pyridin-5-yl)benzamide] | – | – | Inhibition (% Inhibition of MKN-45 proliferation) ([1]; MKN-45 proliferation, 0.1 μM): D (D = <25%)
20 | 135 to 137 °C | O=C(NCCCN1CCCCC1)c1ccc(-c2ccc3nnn(Cc4ccc5ncccc5c4)c3n2)cc1F [Ex 124, 2-Fluoro-N-(3-(piperidin-1-yl)propyl)-4-(3-(quinolin-6-ylmethyl)-3H-[1,2,3]triazolo[4,5-b]pyridin-5-yl)benzamide] | 75 to 100% | 50 to 75% | –
21 | 162 to 164 °C | C=CCNC(=O)c1ccc(-c2ccc3nnn(Cc4ccc5ncccc5c4)c3n2)cc1F [Ex 61, N-Allyl-2-fluoro-4-(3-(quinolin-6-ylmethyl)-3H-[1,2,3]triazolo[4,5-b]pyridin-5-yl) benzamide] | 75 to 100% | 75 to 100% | –
22 | 194 to 196 °C | O=C(NCC(F)(F)F)c1ccc(-c2ccc3nnn(Cc4ccc5ncccc5c4)c3n2)cc1F [Ex 93, 2-Fluoro-4-(3-(quinolin-6-ylmethyl)-3H-[1,2,3]triazolo[4,5-b]pyridin-5-yl)-N-(2,2,2-trifluoroethyl)benzamide] | 25 to 50% | 25 to 50% | –
23 | 162 to 164 °C | COCCNC(=O)c1ccc(-c2ccc3nnn(Cc4ccc5ncccc5c4)c3n2)cc1F [Ex 94, 2-Fluoro-N-(2-methoxyethyl)-4-(3-(quinolin-6-ylmethyl)-3H-[1,2,3]triazolo[4,5-b]pyridin-5-yl)benzamide] | 50 to 75% | < 25% | –
24 | 204 to 206 °C | OCCn1cc(-c2ccc3nnn(Cc4ccc(F)cc4)c3n2)cn1 [Ex 161, 2-(4-(3-(4-Fluorobenzyl)-3H-[1,2,3]triazolo[4,5-b]pyridin-5-yl)-1H-pyrazol-1-yl)ethanol] | – | – | –
25 | 213 to 215 °C | CNC(=O)c1ccc(-c2ccc3nnn(Cc4c(F)ccc(F)c4Cl)c3n2)cc1F [Ex 19, 4-(3-(2-Chloro-3,6-difluorobenzyl)-3H-[1,2,3]triazolo[4,5-b]pyridin-5-yl)-2-fluoro-N-methylbenzamide] | – | < 25% | –
26 | 158 to 160 °C | CC(C)CNC(=O)c1ccc(-c2ccc3nnn(Cc4ccc5ncccc5c4)c3n2)cc1F [Ex 97, 2-Fluoro-N-isobutyl-4-(3-(quinolin-6-ylmethyl)-3H-[1,2,3]triazolo[4,5-b]pyridin-5-yl)benzamide] | 25 to 50% | 25 to 50% | –
27 | 137 to 140 °C | CN(C)CCCNC(=O)c1ccc(-c2ccc3nnn(Cc4ccc5ncccc5c4)c3n2)cc1F (as salt: hydrochloride) [Ex 121, N-(3-(dimethylamino)propyl)-2-fluoro-4-(3-(quinolin-6-ylmethyl)-3H-[1,2,3]triazolo[4,5-b]pyridin-5-yl)benzamide dihydrochloride] | – | – | –
28 | 143 to 145 °C | OCCn1cc(-c2ccc3nnn(Cc4c(F)ccc(F)c4Cl)c3n2)cn1 [Ex 165, 2-(4-(3-(2-Chloro-3,6-difluorobenzyl)-3H-[1,2,3]triazolo[4,5-b]pyridin-5-yl)-1H-pyrazol-1-yl)ethanol] | – | – | –
29 | 210 to 213 °C | OCc1ccc(-c2ccc3nnn(Cc4ccc(F)cc4)c3n2)cc1 [Ex 11, (4-(3-(4-Fluorobenzyl)-3H-[1,2,3]triazolo[4,5-b]pyridin-5-yl)phenyl)methanol] | – | – | –
30 | 292 to 294 °C | NCCCNC(=O)c1ccc(-c2ccc3nnn(Cc4ccc5ncccc5c4)c3n2)cc1F [Ex 112, N-(3-Aminopropyl)-2-fluoro-4-(3-(quinolin-6-ylmethyl)-3H-[1,2,3]triazolo[4,5-b]pyridin-5-yl)benzamide] | – | – | –
31 | 172 to 175 °C | O=C(NC1CCCCC1)c1ccc(-c2ccc3nnn(Cc4ccc5ncccc5c4)c3n2)cc1F [Ex 45, N-cyclohexyl-2-fluoro-4-(3-(quinolin-6-ylmethyl)-3H-[1,2,3]triazolo[4,5-b]pyridin-5-yl)benzamide] | – | – | –
32 | 197 to 199 °C | O=C(NC1CC1)c1ccc(-c2ccc3nnn(Cc4ccc5ncccc5c4)c3n2)cc1Cl [Ex 113, 2-Chloro-N-cyclopropyl-4-(3-(quinolin-6-ylmethyl)-3H-[1,2,3]triazolo[4,5-b]pyridin-5-yl)benzamide] | – | – | –
